Measured values from patent publication US20240270821A1, “GIP/GLP1/GCG TRI-RECEPTOR AGONISTS AND USES THEREOF” (priority 2023, published 2024).
Like-named read-outs stand apart in the source and are kept apart here. Starred links: 1 amine or outer side, 2 acyl side, 3 side chain; linkers in the order of their positions; H or OH if unused. Non-standard residues stand in square brackets, D forms with d. Groups on a side chain read outwards from the residue. *: point of attachment. C18 diacid = O=C(O)CCCCCCCCCCCCCCCCC(=O)*; αMePhe(2-F) = C[C@](N)(Cc1ccccc1F)C(=O)O; γGlu = O=C(O)[C@H](CCC(=O)[*:2])N[*:1]; αMe4Pal = C[C@](N)(Cc1ccncc1)C(=O)O; αMeY = C[C@](N)(Cc1ccc(O)cc1)C(=O)O; 4Pal = N[C@@H](Cc1ccncc1)C(=O)O; αMeL = CC(C)C[C@](C)(N)C(=O)O; αMeS = C[C@](N)(CO)C(=O)O; Orn = NCCC[C@H](N)C(=O)O; AEEA = NCCOCCOCC(=O)O; Aib = CC(C)(N)C(=O)O

Columns and labels:
[1] = Pepsin stability assay in simulated gastric fluid; format: in vitro ADME; conditions: pH 1.2, % Intact (SD)
Description: A pepsin stability assay is utilized to determine the relative stability of Example polypeptides in a simulated gastric proteolytic environment. […] The relative amount of intact peptide is quantified by mass spectrometry (MS). […] The examples were dissolved in 50 mM Tris buffer pH 8.0 at a concentration of 10 mg/mL as a stock solution. Pepsin A was reconstituted in SGF at 10 mg/mL. […] The example peptide and pepsin solutions were then incubated at 37° C. in a shaking incubator set at 100 rpm. Samples (25 μL) were withdrawn at different time intervals and quenched with 100 mM ammonium bicarbonate pH 9 (50 μL) to stop proteolytic activity. All samples were centrifuged, and the supernatants were analyzed by LC/MS to determine the remaining intact peptide.

hGIPR [2] = target: T1, hGIPR (Homo sapiens, UniProt P48546); test: Functional cAMP activation in the presence of 0.1% casein (no HSA); format: cell-based; conditions: read-out: Relative cAMP EC50, hGIPR;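 further: intracellular cAMP rise after 30 min at 37 °C read by HTRF against a standard curve, scaled between buffer alone (0%) and top control ligand concentration (100%), four-parameter fit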
T1 sequence (P48546 22-466): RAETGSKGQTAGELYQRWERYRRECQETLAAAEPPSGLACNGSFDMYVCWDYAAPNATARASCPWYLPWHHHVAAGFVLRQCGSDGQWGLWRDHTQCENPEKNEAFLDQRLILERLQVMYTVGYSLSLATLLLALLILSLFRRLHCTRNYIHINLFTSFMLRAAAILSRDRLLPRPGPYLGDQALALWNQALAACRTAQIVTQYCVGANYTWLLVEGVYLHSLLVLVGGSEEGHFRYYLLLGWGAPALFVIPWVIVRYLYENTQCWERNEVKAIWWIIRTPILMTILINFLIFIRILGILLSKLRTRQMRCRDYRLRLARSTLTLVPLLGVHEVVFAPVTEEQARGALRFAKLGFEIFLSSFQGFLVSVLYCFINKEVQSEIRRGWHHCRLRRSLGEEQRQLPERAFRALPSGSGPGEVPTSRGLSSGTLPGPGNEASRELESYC

hGIPR [3] = target: T1, hGIPR; test: Functional cAMP activity in the presence of 1% HSA; format: cell-based; conditions: read-out: cAMP Rel EC50, hGIPR
hGcgR = hGcgR (Homo sapiens, UniProt P47871); test: Functional cAMP activation in the presence of 0.1% casein (no HSA); format: cell-based; conditions: read-out: Relative cAMP EC50, hGcgR;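 further: intracellular cAMP rise after 30 min at 37 °C, read by HTRF against a cAMP standard curve, scaled from buffer only (0%) to maximal control ligand response (100%)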
human GcgR = human GcgR (Homo sapiens, UniProt P47871); test: Functional cAMP activity in the presence of 1% HSA; format: cell-based; conditions: read-out: cAMP Rel EC50, hGcgR
hGLP-1R [4] = target: T2, hGLP-1R (Homo sapiens, UniProt P43220); test: Functional cAMP activity in the presence of 1% HSA; format: cell-based; conditions: read-out: cAMP Rel EC50, hGLP-1R
hGLP-1R [5] = target: T2, hGLP-1R; test: Functional cAMP activation in the presence of 0.1% casein (no HSA); format: cell-based; conditions: read-out: Relative cAMP EC50, hGLP-1R;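 further: intracellular cAMP rise after 30 min at 37 °C read by HTRF, normalized between buffer only (0%) and maximal control ligand (100%), four-parameter variable-slope fit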
in vivo [6] = test: in vivo; parameters: species or system cynomolgus monkeys; conditions: both sexes, cynomolgus monkey, po; for bioavailability: 10 mg; for AUC(0-inf) / CL/F / Cmax / Tmax / half-life: 300 mg
Description: (§1) A study is designed to evaluate the oral bioavailability of Example polypeptides in cynomolgus monkeys. […] Standards and controls are prepared in cynomolgus monkey plasma, and any dilutions required to bring samples into the quantitative range are also performed in control cynomolgus monkey plasma. To control assay variability, an internal standard (IS) is added to all the standards and samples. The Examples and IS are extracted from 100% monkey plasma (50 μL) by protein precipitation using isopropyl alcohol and methanol (50:50 v/v). The samples are then centrifuged (3000 rpm for 10 minutes) and the supernatant is transferred to a Siricco Protein Precipitation Plate. The samples are loaded on a Sep-Pak tC18 SPE microelution plate that is conditioned with 2% formic acid in acetonitrile and water. The compounds are then washed with 2% formic acid in water and eluted using 2% formic acid in acetonitrile into a plate containing 5× Invitrosol and 1% formic acid in water prior to injecting an aliquot (10 μL) on to Xselect CSH C18, 3.5 μm, 2.1×20 mm for LC/MS analysis.
[…] Blood samples are collected up to 504 hours post-dose. Plasma is harvested from blood samples by centrifugation and stored frozen (−70° C.) until analysis. Plasma concentrations of the molecules are detected using the bioanalytical method described above.

in vivo [7] = test: in vivo; parameters: species or system cynomolgus monkeys; conditions: both sexes, cynomolgus monkey, iv, 10 nmol/kg
Description: as §1
Blood samples are collected over 504 hours. Plasma is harvested from blood samples by centrifugation and stored frozen (−70° C.) until analysis. Plasma concentrations of the molecules are detected using the bioanalytical method described above.

human GLP1-R = human GLP1-R (Homo sapiens, UniProt P43220); test: GLP1-R internalization assay in HEK293 cells; format: cell-based
[8] = tested on: Intestinal organoid from Göttingen minipig jejunum tissue, 2D monolayer; test: Cell based in vitro permeability (Papp) assay; format: in vitro ADME
How it was run: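 Papp calculated from LC/MS peptide levels in apical and basal compartments. Basal sampling at 20 min with C10 present, across monolayers grown from dissociated minipig jejunal organoids in transwells.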

[9] = Body weight in diet-induced obese C57BL/6 mice; format: in vivo; conditions: 10 nmol/kg SC QD, 7 days, percent of starting weight, DIO mice, mean ± SEM n=5
How it was run: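 Daily weighing gave body weight as percent of starting value (mean±SEM, n=5) over 9-16 days of SC dosing, once daily or every 3 days, shortly before lights-off. Animals were weight-randomized male C57BL/6 DIO mice, 41-50 g, fed ad libitum on a calorie-rich diet.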

[10] = in the presence of 0.1% casein (no HSA), geometric mean

T2 sequence (P43220 24-463): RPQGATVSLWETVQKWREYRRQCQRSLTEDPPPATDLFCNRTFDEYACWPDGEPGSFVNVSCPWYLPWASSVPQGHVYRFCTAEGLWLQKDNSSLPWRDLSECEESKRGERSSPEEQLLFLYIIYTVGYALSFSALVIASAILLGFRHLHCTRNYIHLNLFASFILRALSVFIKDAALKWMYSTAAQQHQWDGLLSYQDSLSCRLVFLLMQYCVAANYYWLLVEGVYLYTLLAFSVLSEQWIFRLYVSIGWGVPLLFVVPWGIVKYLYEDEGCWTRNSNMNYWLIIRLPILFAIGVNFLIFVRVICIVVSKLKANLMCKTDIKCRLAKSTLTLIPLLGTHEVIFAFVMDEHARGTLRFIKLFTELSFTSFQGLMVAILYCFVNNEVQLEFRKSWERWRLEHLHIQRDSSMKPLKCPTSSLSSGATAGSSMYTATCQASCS
Sequence of hGcgR (P47871 26-477): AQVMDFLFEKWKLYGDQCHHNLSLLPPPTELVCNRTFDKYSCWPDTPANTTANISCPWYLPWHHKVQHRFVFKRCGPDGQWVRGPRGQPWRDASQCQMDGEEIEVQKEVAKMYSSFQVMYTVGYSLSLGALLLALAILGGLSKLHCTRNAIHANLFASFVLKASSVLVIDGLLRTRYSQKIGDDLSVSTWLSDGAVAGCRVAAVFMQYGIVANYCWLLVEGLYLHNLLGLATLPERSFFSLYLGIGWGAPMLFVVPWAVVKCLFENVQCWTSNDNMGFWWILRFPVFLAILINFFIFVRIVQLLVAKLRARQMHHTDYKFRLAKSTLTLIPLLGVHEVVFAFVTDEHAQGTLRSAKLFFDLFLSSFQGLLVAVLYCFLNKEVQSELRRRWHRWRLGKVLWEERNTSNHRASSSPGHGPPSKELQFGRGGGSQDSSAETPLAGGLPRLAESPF
Sequence of human GcgR (P47871 26-477): as above
Sequence of human GLP1-R (P43220 24-463): as the sequence (P43220 24-463) above

Compound | remaining at 0.25 h, 0.4 mg/mL [1] [%] | remaining at 0.5 h, 0.4 mg/mL [1] [%] | remaining at 1 h, 0.4 mg/mL [1] [%] | EC50 (hGIPR [2]) [pM] | EC50 (hGIPR [3]) [nM] | EC50 (hGcgR) [nM] | EC50 (human GcgR) [nM] | EC50 (hGLP-1R [4]) [nM] | EC50 (hGLP-1R [5]) [nM] | other results
H-Y[Aib]QGT[αMePhe(2-F)]TSD[4Pal][αMeS]I[αMeL]LD[Orn]K([AEEA-γGlu-C18 diacid])AQ[αMe4Pal]EFI[dE][αMeY]LIEGGPSSGAPPPSGTGE-NH2 [Example 714] | 99.2 | 102 | 96.9 | 7.64 | 0.754 | 1.76 | 197 | 33.2 | 0.289 | 
H-Y[Aib]QGTFTSD[4Pal]SQ[αMeL]LD[Orn]K([γGlu-γGlu-C18 diacid])AQ[αMe4Pal]AFIE[αMeY]LIEGGPSSGEPPPSGSEE-NH2 [Example 1027] |  |  |  |  | 58.1 |  | 1470 | 252 |  | EC50 (hGIPR [2]; [10]): 208 pM; bioavailability (in vivo [6]): 1.2%; AUC(0-inf) (in vivo [6]): 5.07 µM·h; CL/F (in vivo [6]): 2.77 mL/min/kg; Cmax (in vivo [6]): 135 nM; Tmax (in vivo [6]): 2.5 h; half-life (in vivo [6]): 2.32 days; EC50 (hGcgR; [10]): 4.99 nM; AUC(0-inf) (in vivo [7]): 8.57 ± 1.55 µM·h; clearance (in vivo [7]): 28.8 mL/day/kg; half-life (in vivo [7]): 3.18 ± 1.31 days; EC50 (hGLP-1R [5]; [10]): 1.23 nM
H-Y[Aib]QGT[αMePhe(2-F)]TSD[4Pal]SILLDKK([γGlu-γGlu-C18 diacid])AQ[Aib]AFIEYLEEGGPSSGAPPPSGTGE-NH2 [Example 510] |  |  |  | 62.7 | 6.4 | 5.44 | 564 | 74.2 | 0.71 | bioavailability (in vivo [6]): 0.7%; AUC(0-inf) (in vivo [6]): 5.09 µM·h; CL/F (in vivo [6]): 5.17 mL/min/kg; Cmax (in vivo [6]): 126 nM; Tmax (in vivo [6]): 2 h; half-life (in vivo [6]): 1.96 days; EC50 (human GLP1-R; HEK293 cells expressing SNAP-GLP-1R, read-out: GLP1R Internalization EC50): 11.8 nM; Internalization % TOP (human GLP1-R; normalized to maximum concentration of GLP-1 (100%)): 113%; AUC(0-inf) (in vivo [7]): 14.5 ± 3.42 µM·h; clearance (in vivo [7]): 17.2 mL/day/kg; half-life (in vivo [7]): 2.33 ± 0.55 days
CC[C@H](C)[C@H](NC(=O)[C@H](CC(C)C)NC(=O)[C@](C)(Cc1ccc(O)cc1)NC(=O)[C@@H](CCC(=O)O)NC(=O)[C@@H](NC(=O)[C@H](Cc1ccccc1)NC(=O)[C@H](CCC(=O)O)NC(=O)[C@](C)(Cc1ccncc1)NC(=O)[C@H](CCC(N)=O)NC(=O)[C@H](C)NC(=O)[C@H](CCCCNC(=O)CC[C@H](NC(=O)CC[C@H](NC(=O)CCCCCCCCCCCCCCCCC(=O)O)C(=O)O)C(=O)O)NC(=O)[C@H](CCCN)NC(=O)[C@H](CC(=O)O)NC(=O)[C@H](CC(C)C)NC(=O)[C@](C)(CC(C)C)NC(=O)[C@@H](NC(=O)[C@](C)(CO)NC(=O)[C@H](Cc1ccncc1)NC(=O)[C@H](CC(=O)O)NC(=O)[C@H](CO)NC(=O)[C@@H](NC(=O)[C@](C)(Cc1ccccc1F)NC(=O)[C@@H](NC(=O)CNC(=O)[C@H](CCC(N)=O)NC(=O)C(C)(C)NC(=O)[C@@H](N)Cc1ccc(O)cc1)[C@@H](C)O)[C@@H](C)O)[C@@H](C)CC)[C@@H](C)CC)C(=O)N[C@@H](CCC(=O)O)C(=O)NCC(=O)NCC(=O)N1CCC[C@H]1C(=O)N[C@@H](CO)C(=O)N[C@@H](CO)C(=O)NCC(=O)N[C@@H](C)C(=O)N1CCC[C@H]1C(=O)N1CCC[C@H]1C(=O)N1CCC[C@H]1C(=O)N[C@@H](CO)C(=O)NCC(=O)N[C@@H](CO)C(N)=O [Example 700] | 89.9 | 106 | 98.9 | 7.58 | 0.397 | 1.31 | 132 | 20 | 0.245 | Relative Papp (Compared to internal standard) [8]: 0.29; Body weight (%) [9]: 75.9 ± 3.77 %
H-Y[Aib]QGT[αMePhe(2-F)]TSD[4Pal][αMeS]I[αMeL]LD[Orn]K([AEEA-γGlu-C18 diacid])AQ[αMe4Pal]EFI[dE][αMeY]LVEGGPSSGEPPPSGS-NH2 [Example 733] | 109 | 107 | 110 | 8.94 | 1.15 | 1.6 | 207 | 34.3 | 0.293 | 
H-Y[Aib]QGT[αMePhe(2-F)]TSD[4Pal]SI[αMeL]LD[Orn]K([AEEA-γGlu-C18 diacid])AQ[αMe4Pal][Orn]FI[dE]YLIEGGPSSGEPPPEGT-NH2 [Example 500] | 10.6 | 1 | 0 | 37.5 | 3.9 | 4.04 | 494 | 50.3 | 0.623 | 
H-Y[Aib]QGT[αMePhe(2-F)]TSD[4Pal][αMeS]I[αMeL]LD[Orn]K([γGlu-γGlu-C18 diacid])AQ[αMe4Pal]EFI[dE][αMeY]LVEGGPSSGAPPPSGS-NH2 [Example 696] | 102 | 107 |  | 6.88 | 0.53 | 1.75 | 173 | 19.1 | 0.233 | Relative Papp (Compared to internal standard) [8]: 0.77
H-Y[Aib]QGT[αMePhe(2-F)]TSD[4Pal][αMeS]I[αMeL]LD[Orn]K([γGlu-γGlu-C18 diacid])AQ[αMe4Pal]EFI[dE][αMeY]LIEGGPSSGAPPPSGTGE-NH2 [Example 718] | 103 | 101 |  | 7.06 | 0.531 | 1.2 | 144 | 23.2 | 0.214 | 
